Results taken from ChEMBL document CHEMBL4828758, “Elucidation of Distinct Modular Assemblies of Smoothened Receptor by Bitopic Ligand Measurement” (J Med Chem, 2021).
Active and inactive are the calls of the source. No cut-off for these calls is given here.

Legend:
Assay type in all cases: functional, cell-based
[1] = target: Protein smoothened (Mus musculus) (UniProt P56726); assay: Antagonist activity at SMO in mouse NIH3T3 cells preincubated for 2 hrs followed by SAG stimulation and measured after 24 hrs by Bright-Glo luciferase assay; details: time 26.0 hrs
[2] = target: Protein smoothened (Mus musculus) (UniProt P56726); assay: Agonist activity at SMO in mouse NIH3T3 cells preincubated for 2 hrs followed by SAG stimulation and measured after 24 hrs in presence of GDC0449 by Bright-Glo luciferase assay; details: filed as agonist, time 26.0 hrs
[3] = target: Protein smoothened (Mus musculus) (UniProt P56726); assay: Agonist activity at SMO in mouse NIH3T3 cells assessed as induction of SMO accumulation in primary cilia incubated for 12 hrs by AlexaFluor 488/ DAPI staining based immunofluorescence method; details: filed as agonist
[4] = target: Protein smoothened (Mus musculus) (UniProt P56726); assay: Antagonist activity at SMO in mouse NIH3T3 cells preincubated for 2 hrs followed by ShhN stimulation and measured after 24 hrs in presence of GDC0449 by Bright-Glo luciferase assay; details: filed as antagonist, time 26.0 hrs
[5] = target: Protein smoothened (Mus musculus) (UniProt P56726); assay: Agonist activity at SMO in mouse NIH3T3 cells assessed as fluorescent intensity of ciliary SMO incubated for 12 hrs by fluorescence method; details: filed as agonist
[6] = target: Protein smoothened (Mus musculus) (UniProt P56726); assay: Antagonist activity at SMO in mouse NIH3T3 cells preincubated for 2 hrs followed by SAG stimulation and measured after 24 hrs in presence of GDC0449 by Bright-Glo luciferase assay; details: time 26.0 hrs
[7] = target: Protein smoothened (Mus musculus) (UniProt P56726); assay: Agonist activity at SMO in mouse NIH3T3 cells assessed as induction of SMO accumulation in primary cilia incubated for 12 hrs by fluorescence method; details: filed as agonist

Sequence of Protein smoothened (Mus musculus) (P56726 whole entry): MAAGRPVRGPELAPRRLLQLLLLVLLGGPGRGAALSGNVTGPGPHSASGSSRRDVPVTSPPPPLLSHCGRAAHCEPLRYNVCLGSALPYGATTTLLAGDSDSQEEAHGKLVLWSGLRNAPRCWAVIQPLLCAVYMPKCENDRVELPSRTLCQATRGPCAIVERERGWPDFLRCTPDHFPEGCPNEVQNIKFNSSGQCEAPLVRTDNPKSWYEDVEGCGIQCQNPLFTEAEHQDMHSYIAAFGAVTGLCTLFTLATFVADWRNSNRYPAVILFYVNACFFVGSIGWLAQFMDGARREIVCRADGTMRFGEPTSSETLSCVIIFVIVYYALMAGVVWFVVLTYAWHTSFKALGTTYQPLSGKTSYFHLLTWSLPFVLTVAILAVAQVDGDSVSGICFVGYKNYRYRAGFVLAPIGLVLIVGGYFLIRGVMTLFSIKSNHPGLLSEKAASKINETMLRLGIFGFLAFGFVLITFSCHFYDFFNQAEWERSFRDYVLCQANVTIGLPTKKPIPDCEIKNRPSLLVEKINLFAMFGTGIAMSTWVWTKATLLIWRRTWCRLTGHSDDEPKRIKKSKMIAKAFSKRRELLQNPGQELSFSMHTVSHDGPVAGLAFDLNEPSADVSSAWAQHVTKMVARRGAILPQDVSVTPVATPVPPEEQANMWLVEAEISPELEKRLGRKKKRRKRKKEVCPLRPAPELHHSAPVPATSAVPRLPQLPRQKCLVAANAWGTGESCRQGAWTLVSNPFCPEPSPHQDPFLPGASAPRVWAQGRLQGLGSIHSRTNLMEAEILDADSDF

Activity [1] | Structure (SMILES) | Activity [2] | Activity [3] | Activity [4] | Activity [5] | Activity [6] | Activity [7]
inactive | CC(O)(CCCCCCOCCOCc1cn(CCOCCS(=O)(=O)c2ccc(C(=O)Nc3ccc(Cl)c(-c4ccccn4)c3)c(Cl)c2)nn1)C1CC[C@H]2[C@@H]3CC=C4C[C@@H](O)CC[C@]4(C)[C@H]3CC[C@]12C (stereo partly drawn) | – | – | – | – | – | –
inactive | CC(O)(CCCCCCOCc1cn(CCOCCS(=O)(=O)c2ccc(C(=O)Nc3ccc(Cl)c(-c4ccccn4)c3)c(Cl)c2)nn1)C1CC[C@H]2[C@@H]3CC=C4C[C@@H](O)CC[C@]4(C)[C@H]3CC[C@]12C (stereo partly drawn) | – | – | – | – | – | –
– | CC(C)CCC[C@](C)(O)[C@H]1CC[C@H]2[C@@H]3CC=C4C[C@@H](O)CC[C@]4(C)[C@H]3CC[C@@]21C | Active | Active | Active | Active | inactive | Active
